Data from patent US5672710A, “Sulfides, sulfoxides and sulfones disubstituted with a tetrahydronaphthalenyl, chromanyl, thiochromanyl or tetrahydroquinolinyl and substituted phenyl or heteroaryl group, having retinoid-like biological activity” (priority 1995, dated 1997).

How the values were obtained:
RXRβ = biological target: T1, RXRβ (Mus musculus, UniProt P28704); experiment: Holoreceptor transactivation assay, RXRβ; format: cell-based; details: CV1 cells; for EC50: 36 hours; for Emax: CV-1, relative to all trans retinoic acid, read-out: Transactivation Assay Efficacy (% of RA activity), RXRβ
T1 construct: expressed in transfected cells; host or cells: CV1
T1 sequence (P28704 1-520): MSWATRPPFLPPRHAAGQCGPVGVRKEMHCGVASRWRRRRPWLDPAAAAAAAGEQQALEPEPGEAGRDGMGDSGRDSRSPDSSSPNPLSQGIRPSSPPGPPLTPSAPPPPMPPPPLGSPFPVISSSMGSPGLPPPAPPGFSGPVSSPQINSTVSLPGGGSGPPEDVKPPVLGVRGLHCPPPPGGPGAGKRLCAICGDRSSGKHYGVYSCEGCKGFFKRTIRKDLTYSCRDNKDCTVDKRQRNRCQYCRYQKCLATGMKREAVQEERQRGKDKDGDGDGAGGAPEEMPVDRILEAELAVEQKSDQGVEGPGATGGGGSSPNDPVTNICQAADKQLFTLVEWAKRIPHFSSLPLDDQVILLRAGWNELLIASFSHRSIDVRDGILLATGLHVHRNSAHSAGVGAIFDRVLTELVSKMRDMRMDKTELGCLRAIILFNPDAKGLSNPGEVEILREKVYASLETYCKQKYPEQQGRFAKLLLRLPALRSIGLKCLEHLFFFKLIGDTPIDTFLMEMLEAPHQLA
Text: (§1) A holoreceptor transactivation assay and a ligand binding assay which measure the ability of the compounds of the invention to bind to the several retinoid receptor subtypes, respectively, are described in published PCT Application No. WO W093/11755 (particularly on pages 30-33 and 37-41) published on Jun. 24, 1993, the specification of which is also incorporated herein by reference. A description of the holoreceptor transactivation assay is also provided below.
(§2) CV1 cells (5,000 cells/well) were transfected with an RAR reporter plasmid MTV-TREp-LUC (50 ng) along with one of the […] expression vectors (10 ng) in an automated 96-well format by the calcium phosphate procedure of Heyman et al. Cell 68, 397-406. (8). For RXRα and RXR.GAMMA. transactivation assays, an RXR-responsive reporter plasmid CRBPII-tk-LUC (50 ng) along with the appropriate RXRexpression vectors (10 ng) was used substantially as described by Heyman et al. above, and Allegretto et al. J. Biol. Chem. 268, 26625-26633. For RXRβ transactivation assays, an RXR-responsive reporter plasmid CPRE-tk-LUC ([…]) along with RXRβ expression vector ([…]) was used as described in above. These reporters contain DRI elements from human CRBPII and certain DRI elements from promoter, respectively. (see Mangelsdorf et al. The Retinoids: Biology, Chemistry and Medicine, pp 319-349, Raven Press Ltd., New York and Heyman et al., cited above) (1, 8). A β-galactosidase (50 ng) expression vector was used as an internal control in the transfections to normalize for variations in transfection efficiency. The cells were transfected in triplicate for 6 hours, followed by incubation with retinoids for 36 hours, and the extracts were assayed for luciferase and β-galactosidase activities. The detailed experimental procedure for holoreceptor transactivations has been described in Heyman et al. above, and Allegretto et al. cited above. The results obtained in this assay in connection with examplary compounds in accordance with the present invention are expressed in EC50 numbers, as they are also in the chimeric receptor transactivation assay. The Heyman et al. Cell 68, 397-406, Allegretto et al. J. Biol. Chem. 268, 26625-26633, and Mangelsdorf et al. The Retinoids: Biology, Chemistry and Medicine, pp 319-349, Raven Press Ltd., New York, are expressly incorporated herein by reference. The results of ligand binding assay are expressed in Kd numbers. (See Cheng et al. Biochemical Pharmacology Vol. 22 pp 3099-3108, expressly incorporated herein by reference.)

RARβ = biological target: T2, RARβ (Homo sapiens, UniProt P10826); experiment: Holoreceptor transactivation assay, RARβ; format: cell-based; details: CV-1; CV1 cells; relative to all trans retinoic acid; read-out: Transactivation Assay Efficacy (% of RA activity), RARβ
T2 construct: expressed in transfected cells; host or cells: CV1
T2 sequence (P10826 1-448 isoform P10826-2): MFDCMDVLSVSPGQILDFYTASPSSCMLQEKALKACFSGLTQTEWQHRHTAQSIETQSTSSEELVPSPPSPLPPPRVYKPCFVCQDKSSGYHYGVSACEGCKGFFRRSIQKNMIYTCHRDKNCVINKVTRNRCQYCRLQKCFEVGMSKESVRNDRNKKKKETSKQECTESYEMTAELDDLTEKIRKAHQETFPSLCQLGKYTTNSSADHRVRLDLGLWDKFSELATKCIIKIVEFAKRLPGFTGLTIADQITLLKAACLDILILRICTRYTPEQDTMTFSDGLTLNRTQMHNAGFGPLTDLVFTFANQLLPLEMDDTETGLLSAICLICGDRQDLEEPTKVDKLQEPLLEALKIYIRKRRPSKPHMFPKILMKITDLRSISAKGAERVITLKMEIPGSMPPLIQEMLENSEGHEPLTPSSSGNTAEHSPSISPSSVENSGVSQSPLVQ
Text: as §1, §2

RARγ = biological target: T3, RARγ (Homo sapiens, UniProt P13631); experiment: Ligand binding assay, RARγ
T3 construct: expressed in transfected cells; host or cells: CV1
T3 sequence (P13631 1-454): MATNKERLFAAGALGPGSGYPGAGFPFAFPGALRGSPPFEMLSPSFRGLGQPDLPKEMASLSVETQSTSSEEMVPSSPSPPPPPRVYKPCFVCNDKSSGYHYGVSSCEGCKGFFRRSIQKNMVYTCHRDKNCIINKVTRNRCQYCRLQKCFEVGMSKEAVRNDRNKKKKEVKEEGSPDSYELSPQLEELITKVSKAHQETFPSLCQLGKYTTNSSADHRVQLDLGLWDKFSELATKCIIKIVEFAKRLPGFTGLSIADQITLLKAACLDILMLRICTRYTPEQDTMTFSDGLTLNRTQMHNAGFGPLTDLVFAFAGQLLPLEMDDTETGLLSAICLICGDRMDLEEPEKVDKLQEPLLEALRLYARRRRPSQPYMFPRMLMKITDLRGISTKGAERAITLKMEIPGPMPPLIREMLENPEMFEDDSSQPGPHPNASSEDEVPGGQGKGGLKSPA
Text: as §1, §2

Row | EC50 (RXRβ) [µM] | Emax (RXRβ) [%] | Emax (RARβ) [%] | Kd (RARγ) [µM] | Structure (SMILES)
1 | – | 11 | 4 | > 1 | CC1(C)CCC(C)(C)c2cc(S(=O)(=O)c3ccc(C(=O)O)cc3)ccc21 [Compound 5, 4-(5,6,7,8-tetrahydro-5,5,8,8-tetramethyl-2-naphthylsulfonyl)benzoic acid]
2 | – | – | 6 | > 1 | Cc1cc2c(cc1S(=O)(=O)c1ccc(C(=O)O)cc1)C(C)(C)CCC2(C)C [Compound 11, 4-(5,6,7,8-tetrahydro-3,5,5,8,8-pentamethyl-2-naphthylsulfonyl)benzoic acid]
3 | 1.3 | 117 | 0 | > 1 | Cc1cc2c(cc1Sc1ncc(C(=O)O)s1)C(C)(C)CCC2(C)C [Compound 15, 2-(5,6,7,8-Tetrahydro-3,5,5,8,8-pentamethyl-2-naphthylthio)-5-thiazolecarboxylic acid]

More lines, now with the values behind:

Row | Structure (SMILES) | EC50 (RXRβ) [µM] | Emax (RXRβ) [%] | Emax (RARβ) [%] | Kd (RARγ) [µM]
4 | CC1(C)CCC(C)(C)c2cc(Sc3ccc(C(=O)O)cc3)ccc21 [Compound 2] | 1.6 | 80 | 66 | > 1
5 | Cc1cc2c(cc1Sc1ccc(C(=O)O)cc1)C(C)(C)CCC2(C)C [Compound 7, 4-(5,6,7,8-tetrahydro-3,5,5,8,8-pentamethyl-2-Daphthylthio)benzoic acid] | 0.32 | 114 | 4 | > 1
6 | Cc1cc2c(cc1[S+]([O-])c1ccc(C(=O)O)cc1)C(C)(C)CCC2(C)C (centres unmarked) [Compound 9, 4-(5,6,7,8-tetrahydro-3,5,5,8,8-pentamethyl-2-naphthylsulfoxy)benzoic acid] | 3 | 29 | 4 | > 1
7 | Cc1cc2c(cc1Sc1ccc(C(=O)O)cn1)C(C)(C)CCC2(C)C [Compound 13] | – | – | 4 | > 10
